Results as given in patent US8829014B2, “Thiazole and thiophene analogues, and their use in treating autoimmune diseases and cancers” (Board of Supervisors of Louisiana State University and …, priority 2006, dated 2014).
Entries after “also recorded” stand apart in the source; their conditions may differ. Where two headings read alike, the source gives them in different places.

What was measured:
[1] = system: carageenan-induced edema; assay: Carrageenan-induced rat paw edema test (anti-inflammatory activity); assay type: in vivo, Sprague-Dawley rats; settings: for In vivo inflammation % inhibition: rat paw edema induced by carageenan injection; for inhibition in vivo at 50 mg/kg: po, 3 h
Outline: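 Edema was raised by sub-plantar injection of 1% carrageenan into the right hind paw, 1 h after dosing 18 h-fasted male/female Sprague-Dawley rats (150-250 g) with 50 mg/kg p.o. in 0.1% CMC. Swelling was measured by displacement 3 h later and expressed as % protection against saline control.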

[2] = system: eIF4E; assay: eIF4E inhibitor screen: luciferase under FGF 5′UTR in FaDu cells (highly cap-dependent translation); assay type: cell-based; settings: for luciferase expression under the control of the FGF 5′UTR: 1.0 μM, 48 h, FaDu UTR cells, normalized to DMSO (FIG. 8)
Source text: Since highly cap-dependent translation is associated with synthesis of proteins involved in cancer, a compound that inhibits this pathway may be used as an anti-cancer agent. The assay was developed by cloning the highly structured 5′ UTR of FGF, which requires high levels of eIF4E before protein synthesis can initiate, into the proper orientation of the reporter gene luciferase, and then stably transfecting the modified luciferase gene into the cell line FaDu that is known to have high levels of eIF4E. The activity of luciferase is then monitored in the presence and absence of the tested compound.
Generation of Stable Cell Lines: The pMS110 plasmid (pGL3-control plasmid from Promega which contains a neo selectable marker) was used to generate pMS110-5′UTR by cloning the 5′ UTR of FGF just upstream of the luciferase AUG start codon. FaDu cells, a head and neck cancer cell line, were transfected using Lipofectamine2000 (Invitrogen). Twenty-four hours after transfection G418 was added at 500 μg/ml. Cells were maintained in G418 for 14 days, and then individual colonies were transferred to a 96-well plate for propagation. Individual clones were analyzed for luciferase expression by plating 10^4 cells per well in a 96-well plate for 24 hours before lysing the cells and analyzing for luciferase activity in a Victor III (Perkin Elmer) or Lucy2 (Rosys Anthos). FaDu9000 and FaDuUTR were the clones that expressed the highest level of active luciferase following transfection of pMS110 and pMS110-5′UTR, respectively.
Analysis of Rapamycin Responsiveness: Cells of FaDu9000 and FaDuUTR were plated at 1×10^4 cells/well in a 96-well dish. Twenty-four hours after plating, 0.1% DMSO (vehicle control) or 10 nM rapamycin were added to each well, and the cells were maintained for an additional 24 or 48 hours. The cells were then lysed and luciferase activity was determined using BriteGlo (Promega) as per manufacturer's instruction and recorded using the Victor III. Following subtraction of background activity, the mean value of quadruplicate samples for a given experiment was determined, and the treated cells were normalized to the control. At least four separate experiments were conducted, and the mean and standard error were calculated. To determine if rapamycin affected cell viability, an MTS assay (Cell Proliferation One Solution, Promega) was carried out on each population at 48 hours in two separate experiments.
The FaDu cell line stably transfected with FGF 5′UTR was used to screen thirty-nine representative compounds, each at a concentration of 1.0 μM. Additional cells were treated with vehicle, 0.3% DMSO. Cells were plated for twenty-four hours in a 96-well plate. Each compound was then added to triplicate wells, and the cells were incubated for forty-eight hours before measuring luciferase activity as above. The mean luciferase activity was measured using Promega's Brite-Glo kit, and the mean for each sample was normalized to DMSO. The experiment was then repeated, and the average and standard deviation of the two experiments were determined (FIG. 8).

[3] = system: NF-κB; assay: NF-κB inhibitor screen: basal NF-κB-dependent luciferase expression in HEK/NF-κB cell line; assay type: cell-based
Outline: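 Basal NF-κB-driven luciferase (six-copy element, stable HEK293 line) was read with Brite-Glo. Compound was added in 0.3% DMSO 24 h post-plating, initially at 1.0 μM and then across 10–3300 nM in six steps, in triplicate wells. Signals were expressed relative to DMSO or to the lowest concentration tested.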

[4] = system: AP-1; assay: PMA-induced AP-1 luciferase expression in HEK cells; assay type: cell-based; settings: for IC50: 6 point dose-response curves, read-out: IC50 concentrations AP-1; for AP-1 % inhibition: four lead compounds, Table 13
[5] = system: cell lines from the skin, one tumorigenic and one non-tumorigenic; assay: MTT viability in skin cell line pair, tumorigenic and non-tumorigenic; assay type: cell-based; settings: 10 μM, 48 h, MTT; tumorigenic vs non-tumorigenic line
Protocol: Additional compounds have also been tested for their ability to inhibit both TNF-α-induced NF-κB—expression and PMA-induced AP-1 expression. In both tests, the compound was added for 1 h, then the appropriate inducer was added, and luciferase activity was monitored 24 h later. Values were then normalized to the vehicle control, DMSO. Following the initial luciferase screens, studies were conducted to assess the cytotoxicity of the compounds in normal cells such as VSMC, HUVEC, or HPT cells. Human umbilical vein endothelial cells (HUVEC) represent the normal endothelium, vascular smooth muscle cells (VSMC) were represented by cells from the adult rat aorta, and human proximal tubule (HPT) cells represent the normal proximal tubule in vivo. These cells were grown to near confluency in multi-well plates, and were then treated for 48 h with either vehicle (0.1% DMSO) or 10 μM of each drug candidate. Following treatment, the media from the VSMC and HUVEC incubations were removed, and the amount of lactate dehydrogenase (LDH) released into the medium was determined with a commercial kit. LDH is normally confined to the cytosol, and its release represents “leakiness” of the plasma membrane. LDH activity was expressed as % increase over vehicle-treated cells. In another assay of viability, the treated VSMC and HUVEC were removed by trypsinization and treated with trypan blue, a dye that is taken up only by dead cells. The number of both live and dead cells was counted using an automated cell viability analyzer. The % decrease in numbers of viable cells was determined. Toxicity in the treated HPT cells was determined by the ethidium homodimer (EthHD) uptake assay. EthHD is a fluorescent dye that is excluded from live cells, but is taken up by cells that have lost permeability barriers. Inside the cell, EthHD produces a strong fluorescent signal, which is proportional to the number of dead cells. Results were expressed as a % increase in cell death over vehicle-treated cells. The lead compounds were also tested in two pairs of cell lines from either the skin or prostate, one tumorigenic and one non-tumorigenic, to test for any differences in toxicity or heightened sensitivity in the tumorigenic lines. The cells were treated for 48 h with vehicle (0.1% DMSO) or 10 μM of each drug candidate. Following treatment, the viability of the cells was determined by the MTT assay. In this assay, the MTT dye is converted only in viable cells by intracellular enzymes to a colorimetric product that is quantitated by a microplate reader.
(§1) For the results in Table 13, cells were grown to near confluency in multi-well plates, then treated for 48 h with either vehicle (0.1% DMSO) or 10 μM of each drug candidate. Following treatment, the media from the VSMC and HUVEC incubations were removed, and the amount of lactate dehydrogenase (LDH) released into the medium was determined with a commercial kit and expressed as a % increase over vehicle-treated cells. HPT toxicity was determined by the ethidium homodimer (EthHD) uptake assay. Inside the cell, EthHD produces a strong fluorescent signal, which is proportional to the amount of cell death, expressed as a % increase in cell death over vehicle-treated cells. The lead compounds were also tested in two pairs of cell lines from the skin or prostate, one tumorigenic and one non-tumorigenic, to test for differing toxicity or heightened sensitivity in the tumorigenic lines. The cells were treated for 48 h with vehicle (0.1% DMSO) or 10 μM of each drug candidate, and the viability of the cells was determined by the MTT assay, expressed as a % decrease in viability compared to vehicle-treated cells. The in vivo inflammation model measured the % inhibition of rat paw edema induced by carageenan injection.

[6] = system: cell lines from the prostate, one tumorigenic and one non-tumorigenic; assay: MTT viability in prostate cell line pair, tumorigenic and non-tumorigenic; assay type: cell-based; settings: 10 μM, 48 h, tumorigenic vs non-tumorigenic line
Protocol: Additional compounds have also been tested for their ability to inhibit both TNF-α-induced NF-κB—expression and PMA-induced AP-1 expression. In both tests, the compound was added for 1 h, then the appropriate inducer was added, and luciferase activity was monitored 24 h later. Values were then normalized to the vehicle control, DMSO. Following the initial luciferase screens, studies were conducted to assess the cytotoxicity of the compounds in normal cells such as VSMC, HUVEC, or HPT cells. Human umbilical vein endothelial cells (HUVEC) represent the normal endothelium, vascular smooth muscle cells (VSMC) were represented by cells from the adult rat aorta, and human proximal tubule (HPT) cells represent the normal proximal tubule in vivo. These cells were grown to near confluency in multi-well plates, and were then treated for 48 h with either vehicle (0.1% DMSO) or 10 μM of each drug candidate. Following treatment, the media from the VSMC and HUVEC incubations were removed, and the amount of lactate dehydrogenase (LDH) released into the medium was determined with a commercial kit. LDH is normally confined to the cytosol, and its release represents “leakiness” of the plasma membrane. LDH activity was expressed as % increase over vehicle-treated cells. […] The number of both live and dead cells was counted using an automated cell viability analyzer. The % decrease in numbers of viable cells was determined. Toxicity in the treated HPT cells was determined by the ethidium homodimer (EthHD) uptake assay. […] Results were expressed as a % increase in cell death over vehicle-treated cells. […] Following treatment, the viability of the cells was determined by the MTT assay. In this assay, the MTT dye is converted only in viable cells by intracellular enzymes to a colorimetric product that is quantitated by a microplate reader.
as §1, with “The lead compounds were also tested in two pairs of cell lines from the skin or prostate, one tumorigenic and one non-tumorigenic, to test for differing toxicity or heightened sensitivity in the tumorigenic lines.” left out, “The in vivo inflammation model measured the % inhibition of rat paw edema induced by carageenan injection.” left out

[7] = system: NF-κB; assay: TNF-α-induced NF-κB-dependent luciferase expression in HEK cells; assay type: cell-based; set-up: NF-κB % inhibition: concentration or dose not given beside the values; settings: for NF-κB % inhibition: four lead compounds, Table 13
[8] = system: AP-1; assay: AP-1 inhibitor screen: basal AP-1-dependent luciferase expression in HEK/AP-1 cell line; assay type: cell-based
Outline: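 Compound effects on unstimulated reporter signal were tested: 1.0 μM compound (0.3% DMSO) for 48 hr on HEK cells bearing an AP-1 (TGACTAA ×3)-luciferase construct, seeded 24 hr earlier. Triplicate luminescence means were normalized to DMSO-only wells; dose-response experiments were repeated 2–4 times.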

| Compound | luciferase expression under the control of the FGF 5′UTR [2] | In vivo inflammation % inhibition [1] | AP-1 % inhibition [4] | Differential Toxicity* Skin [5] | Differential Toxicity* Prostate [6] | also measured |
| --- | --- | --- | --- | --- | --- | --- |
| COc1ccc(C(=O)c2sc(Nc3ccccc3)nc2N)cc1 [Example 115, (4-Amino-2-phenylamino-thiazole-5-yl)-4-(methoxy-phenyl)-methanone] | increased luciferase expression | – | – | – | – | % Protection P ([1]; rat paw edema, 50 mg/kg, reading 3 hours after carrageenan, [(Control−Test)/Control]×100%, 50 mg/kg): 90.92%; basal NF-κB-dependent luciferase expression ([3]; 1.0 μM screen of 39 compounds (FIG. 11)): potentiated expression in one of the two experiments |
| CC(=O)c1ccc(-n2c(-c3cc(-c4ccncc4)c(N4CCOCC4)s3)nc3ccccc3c2=O)cc1 [PMCR 242] | – | 80% | 84% | Neither | Cancer | inflammation in the in vivo assay ([1]; rat paw edema): strongly inhibited inflammation; IC50 [4]: 5000 nM; NF-κB % inhibition [7]: 66% |
| Cc1nc(Nc2ccc(Cl)cc2)sc1-c1nc2ccccc2c(=O)n1-c1ccccc1Cl [PMCR 120] | – | 58% | 27% | Cancer | Both | – |
| Cc1ccccc1-n1c(-c2sc(Nc3ccccc3)nc2C)nc2ccccc2c1=O [PMCR 20] | – | 42% | 73% | Neither | Cancer | NF-κB % inhibition [7]: 21% |
| CNc1nc(-c2ccccc2)c(-c2nc3ccccc3c(=O)n2-c2ccccc2OC)s1 [PMCR 75] | – | 56% | 90% | Both | Normal | IC50 [4]: 200 nM; IC50 ([7]; 6 point dose-response curves, read-out: IC50 concentrations NF-κB): 500 nM |
| Bis-(2-phenylamino-4-benzayl-thiazole-5-yl)-methanone [Example 133] | inhibited luciferase expression | – | – | – | – | % Protection P ([1]; rat paw edema, 50 mg/kg, reading 3 hours after carrageenan, [(Control−Test)/Control]×100%): 19.09%; AP-1 inhibition @ 1 uM ([4]; 1 uM, luciferase in HEK/AP-1 cells, as described in Example 398): 24.53; NFkB inhibition @ 1 uM ([7]; 1 uM, luciferase in HEK/NF-κB cells, as described in Example 398): 17.74 |
| 2-(4-Methyl-2-methylamino-thiazol-5-yl)-3-(4-chloro-phenyl)-3H-quinazolin-4-one [Example 244] | inhibited luciferase expression | – | – | – | – | inhibition of highly cap-dependent translation (summary statement) ([2]; summary in the disclosure): capable of inhibiting; basal AP-1-dependent luciferase, six-point dose response ([8]; 10 nM-3300 nM (FIG. 14)): substantial activity at submicromolar concentrations; basal NF-κB-dependent luciferase, six-point dose response ([3]; 10 nM-3300 nM (FIG. 12), listed as Compound 4): substantial activity at submicromolar concentrations; also recorded: robust inhibition; inhibition of basal NF-κB-dependent luciferase expression ([3]; 3.3 μM (FIG. 12)): about 50%; inhibition of NF-κB (summary statement) ([3]; summary in the disclosure): capable of inhibiting |
| O=C(c1sc(Nc2ccccc2)nc1-c1ccccc1)c1sc(Nc2ccccc2)nc1-c1ccccc1 [Example 126, Bis-(2-phenylamino-4-phenyl-thiazole-5-yl)-methanone] | increased luciferase expression | – | – | – | – | inhibition in vivo at 50 mg/kg ([1]; Rattus norvegicus, rat paw edema, 50 mg/kg, reading 3 hours after carrageenan, [(Control−Test)/Control]×100%, read-out: % Protection P): 64.5%; inhibition at 1 µM ([4]; AP1, 1 uM, luciferase in HEK/AP-1 cells, as described in Example 398): 27.1%; inhibition at 1 µM ([7]; Homo sapiens, HEK293, 1 uM, luciferase in HEK/NF-κB cells, as described in Example 398, read-out: NFkB inhibition @ 1 uM): 22.2% |
| CCOC(=O)Nc1nc(-c2ccccc2)c(-c2nc3ccccc3c(=O)n2-c2ccccc2)s1 [Example 159, [5-(4-Oxo-3-phenyl-3,4-dihydro-quinazolin-2-yl)-4-phenyl-thiazol-2-yl]-carbamic acid ethyl ester] | increased luciferase expression | – | – | – | – | inhibition in vivo at 50 mg/kg ([1]; carrageenan-induced rat paw edema, defined in Example 397, read-out: % Protection): 75%; inhibition at 1 µM ([8]; AP1, 1 uM, determined as described in Example 398): 7%; inhibition at 1 µM ([3]; 1 uM, determined as described in Example 398, read-out: NFkB inhibition @ 1 uM): 80% |
| N-{4-{5-[4-(4-acetylamino-phenyl)-5-morpholin-4-yl-thiophene-2-carbonyl]-2-morpholin-4-yl-thiophene-3-yl}-phenyl)-acetamide [Example 113] | increased luciferase expression | – | – | – | – | – |
